Results published in article PMC10883997, “Multiparametric in vitro and in vivo analysis of the safety profile of self-assembling peptides” (Scientific Reports, 2024).
The star is where a group is joined. Biotin = O=C1N[C@H]2[C@H](CS[C@H]2CCCCC(=O)*)N1

What was measured:
[1] = test system: TK6 human lymphoblastoid cell line; assay: In vitro micronucleus (MN) assay; type: cell-based; conditions: 4 h exposure, scored 48 h after exposure, 2000 cells per culture, three independent experiments
Experimental: (§1) The general guidance from OECD TG 487 and 490 were followed[26],[41]. TK6 cell suspensions were treated with serially diluted SAPs molecules at 37 °C for 4 h, washed and resuspended in fresh medium, and cultured in new flasks for the MN and TK assays. We conducted the MN test and the TK mutation assay 48 h and 72 h later, respectively.
To measure genotoxicity, cells were subcultured at a maximum density of 2.5 × 10^5 cells/mL (at most 20 × 0^6 cells) for 3 additional days to allow phenotypic expression of the TK gene prior to mutant selection. Forty-eight hours after treatment, the cells were prepared for the MN assay. Briefly, a small portion of cell culture from the flask was transferred to a 15 mL tube and centrifuged at 1200 rpm for 5 min at RT. The supernatant was then removed, and the pelleted cells were resuspended in PBS and placed in a cytospin funnel where cells were cytospun for 4 min at 900 rpm on microscope coverslips. A Diff-Quik staining was performed for microscope scoring. At least 2000 intact cells for each treatment were examined, and the cells containing MN were scored. Cells containing one or more micronuclei were recorded as micronucleated cells. […] The MN frequencies between non-treated and treated cells and the concentration–response relationship were statistically analyzed. […]

[2] = test system: TK6 human lymphoblastoid cell line; assay: Thymidine kinase gene mutation assay (TK GMA); type: cell-based; conditions: TK6 cells, 4 h exposure, negative control 5.4 × 10^–6
Experimental: as §1
To measure genotoxicity, cells were subcultured at a maximum density of 2.5 × 10^5 cells/mL (at most 20 × 0^6 cells) for 3 additional days to allow phenotypic expression of the TK gene prior to mutant selection. Forty-eight hours after treatment, the cells were prepared for the MN assay. […] At least 2000 intact cells for each treatment were examined, and the cells containing MN were scored. Cells containing one or more micronuclei were recorded as micronucleated cells. […] The MN frequencies between non-treated and treated cells and the concentration–response relationship were statistically analyzed. […]
The cultures were maintained for another 24 h to allow phenotypic expression prior to plating for TK assay to determine the mutant fractions. […] Mutation frequencies (MFs) were finally calculated from cells grown in TFT selection medium or non-selection medium (for 7 days) via the Poisson distribution method. […] Changes in MFs relative to the negative controls (fold-change) were calculated and expressed graphically.

[3] = test system: female Sprague–Dawley rats; assay: In vivo acute systemic toxicity of SAPs, subcutaneous injection; design: species or system Rattus norvegicus; conditions: for Body weights at the beginning of the experiment (means) / Body weight at the end of the experiment (means): single s.c. injection 10 mL/kg, mean ± SD, n = 5; for Body weights at the beginning of the experiment (means): day 0; for Body weight at the end of the experiment (means): day 5
Experimental: The general guidance from the ISO10993 to Biological evaluation of medical devices was followed. Animals were housed in plastic cages with free access to drinking water and a pelleted basal diet under controlled conditions of temperature (22 °C ± 3 °C), humidity (50 ± 10%) and light (12/12 h light/dark cycle). Rats were quarantined for the first 7 days and randomly divided into experimental and control groups. All animals were bred and maintained at CIBA (Biomedical Research Center of Aragon; Department of Experimental Surgery). Animal experimentation was approved by the Ethics Committee for Animal Experimentation from the University of Zaragoza (protocol number PI31/22), and all authors complied with the ARRIVE guidelines.SAPs or electrospun mats, empty micro-channels, and HS-filled micro-channels were subcutaneously administered to female Sprague–Dawley rats (Rattus norvegicus) 7 weeks old, non-pregnant, and nulliparous. The concentration of each SAP was: HS: 1%, 68: 3%, 46: 5%, C1: 3%, 65L: 3% and B42: 1%. On the day before administration, the animals were weighed, and the hair of their thoracic back was shaved. On day 1, the different SAPs were administered in one single dose by subcutaneous injection to each rat corresponding to each group. To devices, a skin incision of about 1 cm and subcutaneous dissection were performed under sterile conditions. Then, the products provided were introduced into the subcutaneous space, one piece per animal. Animals were weighed. Animals were euthanized by trained personnel using medical-grade Carbon dioxide (CO2). CO2 inhalation is the most common method of euthanasia used for small animals (i.e., mice, rats, guinea pigs, and hamsters). It is considered an acceptable euthanasia agent for small animals when properly administered. It was accepted by the Ethics Committee for Animal Experimentation from the University of Zaragoza (protocol number PI31/22). For histological assessment, lung, liver, spleen, kidneys, and duodenum were removed from rats, fixed with 4% paraformaldehyde, and embedded in paraffin. Sections from these samples were stained with hematoxylin and eosin (H&E). Blood samples were drawn at the end of the study by cardiac puncture. They were analysed with VetScan V2.
Data are expressed by mean ± standard deviation of the mean. Body weight comparison between groups was assessed using the repeated measures two-way ANOVA test. Bonferroni posthoc multiple comparisons were also used. Analysis of biochemical parameters was made with one-way ANOVA. They were performed using GraphPad Prism 8 (8.0.2).

[4] = test system: Mouse Embryonic Fibroblasts (MEFs); assay: Scratch wound (wound healing) assay, fibroblasts; type: cell-based; conditions: MEF fibroblasts, 0.01 mg/mL, IncuCyte scan every 4 h; three independent experiments
Experimental: Prior to initiating the assay, cells were grown to confluence in a 96-well plate at 37 °C in an atmosphere of 5% CO2 and, with the help of a 96-pin IncuCyte® Wound Maker simultaneously created precise and reproducible wounds in all wells of a 96-well plate by gently removing the cells from the confluent monolayer. After wounding, immediately aspirate the media from each well and wash the cells twice with culture media (100 µL/well). After washing, 100 µL of media containing 0.01 mg/mL of the appropriate agent was added to the corresponding well, and the plate was placed inside the IncuCyte. Assay plates were then equilibrated within the IncuCyte® for a minimum of 15 min before the first scan. The software was set to scan the plate every 4 h for migration assays.

[5] = rat blood at day 5, VetScan V2, one-way ANOVA, within expected reference values

CO[C@@]12[C@H](COC(N)=O)C3=C(C(=O)C(C)=C(N)C3=O)N1C[C@@H]1N[C@@H]12 [Mit C, Mitomycin C]
percentage of micronucleated cells versus negative control [1]: significant increase
mutant frequency (MF) ([2]; Mit C 8.3 µg/mL (positive control)): 14.6 × 10^–6
mutant frequency (MF) ([2]; Mit C 25 µg/mL (positive control)): 175.3 × 10^–6

Ac-FAQRVPPGGG(LDLD)3-CONH2 [compound 68]
Sodium blood test (NA+) compared with the control group [3, 5]: increased
albumin (ALB) levels compared with the control group ([3]; rat blood, cardiac puncture at day 5, VetScan V2, one-way ANOVA, all group means incl. control slightly above reference): Significant higher
body weight evolution versus control group ([3]; rats, s.c. 10 mL/kg, days 0, 2, 5, two-way ANOVA, p = 0.03, no significant change at single time points): significantly different
Body weights at the beginning of the experiment (means) ([3]; rats): 238.1 ± 8.05 g
Body weight at the end of the experiment (means) ([3]; rats): 247.9 ± 7.60 g

Biotin-GGGAFASAKA-NH2 [B42]
Body weights at the beginning of the experiment (means) ([3]; rats): 243.8 ± 9.10 g
Body weight at the end of the experiment (means) ([3]; rats): 260.8 ± 10.9 g

FAQRVPPGGG(LDLK)3-CONH2 [compound 46]
cell migration versus control (area under relative wound density % vs time curve) [4]: reduced cell migration
globulin blood tests (GLOB) compared with the control group [3, 5]: increased
Body weights at the beginning of the experiment (means) ([3]; rats): 250.5 ± 9.10 g
Body weight at the end of the experiment (means) ([3]; rats): 265.2 ± 8.20 g
